According to PubChem BioAssay AID2060513 (Molecular Pharmacology Branch, DTP, NCI, 2025):

Tested on: 299254-011-R-J1-PDC complex spheroids viability
Experiment: Anticancer human tumor 299254-011-R-J1-PDC patient-derived melanoma cell line growth inhibition [GQUAD]
Conditions: for IC50: curve of first compound; for viability, T/C: stronger effect = lower value
Procedure, shortened: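 Tumor cells were grown as complex spheroids with HUVEC endothelial cells and mesenchymal stem cells as stroma. G-quadruplex stabilizers were combined with targeted agents over half-log dilutions from near the clinical Cmax, or from 10 microM.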

[1] = second compound 0.0316 µM, first compound 0.0316 µM
[2] = second compound 0.0316 µM, first compound 0.316 µM
[3] = second compound 0.1 µM, first compound 0.0316 µM
[4] = second compound 0.1 µM, first compound 0.316 µM
[5] = second compound 0.316 µM, first compound 0.0316 µM
[6] = second compound 0.316 µM, first compound 0.316 µM
[7] = second compound 1 µM, first compound 0.0316 µM
[8] = second compound 1 µM, first compound 0.316 µM
[9] = second compound 3.16 µM, first compound 0.0316 µM
[10] = second compound 3.16 µM, first compound 0.316 µM
[11] = second compound 10 µM, first compound 0.0316 µM
[12] = second compound 10 µM, first compound 0.316 µM
[13] = second compound 0.0316 µM, first compound 0.1 µM
[14] = second compound 0.0316 µM, first compound 1 µM
[15] = second compound 0.0316 µM, first compound 3.16 µM
[16] = second compound 0.0316 µM, first compound 10 µM
[17] = second compound 0.1 µM, first compound 0.1 µM
[18] = second compound 0.1 µM, first compound 1 µM
[19] = second compound 0.1 µM, first compound 3.16 µM
[20] = second compound 0.1 µM, first compound 10 µM
[21] = second compound 0.316 µM, first compound 0.1 µM
[22] = second compound 0.316 µM, first compound 1 µM
[23] = second compound 0.316 µM, first compound 3.16 µM
[24] = second compound 0.316 µM, first compound 10 µM
[25] = second compound 1 µM, first compound 0.1 µM
[26] = second compound 1 µM, first compound 1 µM
[27] = second compound 1 µM, first compound 3.16 µM
[28] = second compound 1 µM, first compound 10 µM
[29] = second compound 3.16 µM, first compound 0.1 µM
[30] = second compound 3.16 µM, first compound 1 µM
[31] = second compound 3.16 µM, first compound 3.16 µM
[32] = second compound 3.16 µM, first compound 10 µM
[33] = second compound 10 µM, first compound 0.1 µM
[34] = second compound 10 µM, first compound 1 µM
[35] = second compound 10 µM, first compound 3.16 µM
[36] = second compound 10 µM, first compound 10 µM
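Also: spheroids exposed to the agents for seven days before readout.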
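For viability, T/C in this document: percent viability relative to DMSO vehicle control wells = 100%.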

Cc1[nH]c2ccccc2c1CCNCc1ccc(/C=C/C(=O)NO)cc1 + Cc1[nH]c2ccc(F)cc2c1-c1nc2c3cccnc3c3ncccc3c2[nH]1
IC50 (second compound 0.0316 µM): 0.123 µM | IC50 (second compound 0.1 µM): 0.128 µM | IC50 (second compound 0.316 µM): 0.198 µM | IC50 (second compound 1 µM): 0.187 µM | IC50 (second compound 3.16 µM): 0.181 µM | IC50 (second compound 10 µM): 0.163 µM | viability, T/C (second compound 0.0316 µM, first compound 0.000999 µM): 95.9% | viability, T/C (second compound 0.0316 µM, first compound 0.00316 µM): 81.8% | viability, T/C (second compound 0.0316 µM, first compound 0.00999 µM): 92.5% | viability, T/C [1]: 81.3% | viability, T/C (second compound 0.0316 µM, first compound 0.0999 µM): 56.3% | viability, T/C [2]: 21.5% | viability, T/C (second compound 0.1 µM, first compound 0.000999 µM): 95.3% | viability, T/C (second compound 0.1 µM, first compound 0.00316 µM): 119% | viability, T/C (second compound 0.1 µM, first compound 0.00999 µM): 81.8% | viability, T/C [3]: 71.1% | viability, T/C (second compound 0.1 µM, first compound 0.0999 µM): 64.5% | viability, T/C [4]: 22% | viability, T/C (second compound 0.316 µM, first compound 0.000999 µM): 88.1% | viability, T/C (second compound 0.316 µM, first compound 0.00316 µM): 99.4% | viability, T/C (second compound 0.316 µM, first compound 0.00999 µM): 95.8% | viability, T/C [5]: 77.6% | viability, T/C (second compound 0.316 µM, first compound 0.0999 µM): 86.3% | viability, T/C [6]: 25.5% | viability, T/C (second compound 1 µM, first compound 0.000999 µM): 96.1% | viability, T/C (second compound 1 µM, first compound 0.00316 µM): 87.4% | viability, T/C (second compound 1 µM, first compound 0.00999 µM): 93.7% | viability, T/C [7]: 89% | viability, T/C (second compound 1 µM, first compound 0.0999 µM): 81.8% | viability, T/C [8]: 23.6% | viability, T/C (second compound 3.16 µM, first compound 0.000999 µM): 93.8% | viability, T/C (second compound 3.16 µM, first compound 0.00316 µM): 79.2% | viability, T/C (second compound 3.16 µM, first compound 0.00999 µM): 86.6% | viability, T/C [9]: 85.8% | viability, T/C (second compound 3.16 µM, first compound 0.0999 µM): 74.8% | viability, T/C [10]: 26.7% | viability, T/C (second compound 10 µM, first compound 0.000999 µM): 78.2% | viability, T/C (second compound 10 µM, first compound 0.00316 µM): 105% | viability, T/C (second compound 10 µM, first compound 0.00999 µM): 94.6% | viability, T/C [11]: 84.1% | viability, T/C (second compound 10 µM, first compound 0.0999 µM): 74.8% | viability, T/C [12]: 17.9%

CC1COCCN1c1cc(C2(O)CC3CCC(C2)O3)c2cnn(-c3ccn[nH]3)c2n1 (stereo not drawn) + CN(C)c1ccc(Nc2c3ccc(NC(=O)CCN4CCCC4)cc3nc3cc(NC(=O)CCN4CCCC4)ccc23)cc1
IC50 (second compound 0.0316 µM): 0.14 µM | IC50 (second compound 0.1 µM): 0.0998 µM | IC50 (second compound 0.316 µM): 0.18 µM | IC50 (second compound 1 µM): 0.137 µM | IC50 (second compound 3.16 µM): 0.147 µM | IC50 (second compound 10 µM): 0.117 µM | viability, T/C [1]: 77.1% | viability, T/C [13]: 60.4% | viability, T/C [2]: 25.2% | viability, T/C [14]: 18% | viability, T/C [15]: 13.7% | viability, T/C [16]: 6.37% | viability, T/C [3]: 87% | viability, T/C [17]: 51.1% | viability, T/C [4]: 24.2% | viability, T/C [18]: 17.4% | viability, T/C [19]: 12.4% | viability, T/C [20]: 5.43% | viability, T/C [5]: 82.9% | viability, T/C [21]: 73% | viability, T/C [6]: 27.6% | viability, T/C [22]: 16.7% | viability, T/C [23]: 9.78% | viability, T/C [24]: 5.4% | viability, T/C [7]: 93.8% | viability, T/C [25]: 59.3% | viability, T/C [8]: 25.9% | viability, T/C [26]: 17.8% | viability, T/C [27]: 12.5% | viability, T/C [28]: 5.02% | viability, T/C [9]: 86.8% | viability, T/C [29]: 61% | viability, T/C [10]: 27.7% | viability, T/C [30]: 19.2% | viability, T/C [31]: 14% | viability, T/C [32]: 6.53% | viability, T/C [11]: 98.5% | viability, T/C [33]: 54% | viability, T/C [12]: 25.9% | viability, T/C [34]: 13.8% | viability, T/C [35]: 15.2% | viability, T/C [36]: 7.27%

O=c1[nH]cc(F)c(=O)[nH]1 + Cc1[nH]c2ccc(F)cc2c1-c1nc2c3cccnc3c3ncccc3c2[nH]1
IC50 (second compound 0.0316 µM): > 10 µM | IC50 (second compound 0.1 µM): > 10 µM | IC50 (second compound 0.316 µM): > 10 µM | IC50 (second compound 1 µM): > 10 µM | IC50 (second compound 3.16 µM): > 10 µM | IC50 (second compound 10 µM): > 10 µM | viability, T/C [1]: 131% | viability, T/C [13]: 114% | viability, T/C [2]: 113% | viability, T/C [14]: 121% | viability, T/C [15]: 116% | viability, T/C [16]: 125% | viability, T/C [3]: 120% | viability, T/C [17]: 105% | viability, T/C [4]: 110% | viability, T/C [18]: 123% | viability, T/C [19]: 98.3% | viability, T/C [20]: 123% | viability, T/C [5]: 104% | viability, T/C [21]: 99.6% | viability, T/C [6]: 119% | viability, T/C [22]: 100% | viability, T/C [23]: 97.5% | viability, T/C [24]: 97.8% | viability, T/C [7]: 88.3% | viability, T/C [25]: 98.6% | viability, T/C [8]: 106% | viability, T/C [26]: 108% | viability, T/C [27]: 116% | viability, T/C [28]: 106% | viability, T/C [9]: 99.3% | viability, T/C [29]: 107% | viability, T/C [10]: 96% | viability, T/C [30]: 113% | viability, T/C [31]: 90.4% | viability, T/C [32]: 107% | viability, T/C [11]: 96.4% | viability, T/C [33]: 96.5% | viability, T/C [12]: 92.1% | viability, T/C [34]: 102% | viability, T/C [35]: 98.9% | viability, T/C [36]: 88%

COc1cc(C2c3cc4c(cc3C(OC3OC5COC(C)OC5C(O)C3O)C3COC(=O)C23)OCO4)cc(OC)c1O (stereo not drawn) + Cc1[nH]c2ccc(F)cc2c1-c1nc2c3cccnc3c3ncccc3c2[nH]1
IC50 (second compound 0.0316 µM): > 10 µM | IC50 (second compound 0.1 µM): > 10 µM | IC50 (second compound 0.316 µM): > 10 µM | IC50 (second compound 1 µM): > 10 µM | IC50 (second compound 3.16 µM): > 10 µM | IC50 (second compound 10 µM): > 10 µM | viability, T/C [1]: 81.2% | viability, T/C [13]: 79.1% | viability, T/C [2]: 108% | viability, T/C [14]: 85% | viability, T/C [15]: 94.5% | viability, T/C [16]: 76.5% | viability, T/C [3]: 100% | viability, T/C [17]: 97.5% | viability, T/C [4]: 81.2% | viability, T/C [18]: 76.5% | viability, T/C [19]: 99.2% | viability, T/C [20]: 80.1% | viability, T/C [5]: 100% | viability, T/C [21]: 77.3% | viability, T/C [6]: 82.5% | viability, T/C [22]: 86.9% | viability, T/C [23]: 84.3% | viability, T/C [24]: 70.5% | viability, T/C [7]: 101% | viability, T/C [25]: 86% | viability, T/C [8]: 106% | viability, T/C [26]: 87.1% | viability, T/C [27]: 96.7% | viability, T/C [28]: 72.2% | viability, T/C [9]: 99.9% | viability, T/C [29]: 84.9% | viability, T/C [10]: 89.5% | viability, T/C [30]: 89.4% | viability, T/C [31]: 89.5% | viability, T/C [32]: 95% | viability, T/C [11]: 89.7% | viability, T/C [33]: 83% | viability, T/C [12]: 95.3% | viability, T/C [34]: 86.1% | viability, T/C [35]: 96.2% | viability, T/C [36]: 56.5%
